Test results from PMC6645542 (PLoS ONE, 2019).

Tests used:
[1] = target: Thioredoxin glutathione reductase from T. crassiceps (TcTGR) (Taenia crassiceps, UniProt A0ABR4QG96); experiment: GSSG-reductase activity of TGR (NADPH oxidation at 340 nm); format: biochemical; conditions: for IC50: curcumin degradation products, 3 min incubation in TE buffer, 100 μM NADPH, 67 μM GSSG, read-out: IC50, inhibition of GSSG reductase activity of TcTGR; for Recovered activity (%): B: TGR incubated with COP for 5 min, then thiol 50 μM added, control = 100%; for inhibition at 200 µM: 200 μM of the compound, 3 min incubation (Fig 1a), read-out: maximal inhibition of GSSG reductase activity of TcTGR
Description: TGR activity was monitored spectrophotometrically by following the decrease in absorbance at 340 nm (ɛ = 6.22 mM^-1cm^-1) due to its NADPH-dependent ability to reduce GSSG [35, 36]. To determine the inhibitory ability of either curcuminoids, curcumin degradation products or curcumin oxidation products we used the following protocols: a) Curcuminoids. An enzyme aliquot (30 μL) was incubated in the presence of 1 μM NADPH; then, a 1.5 μL aliquot of the above mixture was added to 50 μM of the corresponding curcuminoid solution in TE buffer. At different incubation times, a small aliquot containing both NADPH and GSSG was added to start the reaction in a total volume of 600 μL. The enzyme activity of a reaction mixture prepared in the absence of any curcuminoid was taken as 100% relative activity b) Curcumin degradation products (CDP). The enzyme was treated as above and 1.5 μL aliquot of the mixture was added to the corresponding CDP solution at a selected concentration followed by a 2 min incubation period. Then, both NADPH and GSSG were added to start the reaction. The enzyme activity of a reaction mixture prepared in the absence of any CDP was taken as 100% relative activity. c) Curcumin oxidation products (COP). Curcumin final concentration 50 μM was incubated 15 min in TE buffer. Then, both TGR and the substrates NADPH and GSSG were added to start the reaction. Final concentrations of enzyme, NADPH and GSSG were 13 nM, 100 μM and 70 μM respectively. A unit of enzyme activity is defined as the amount of protein needed to oxidize one μmol NADPH per minute at 25°C.

[2] = parameters: method as in PMID 25806475; conditions: cited from earlier work
[3] = Spectrophotometrical analysis of stability (absorbance at 426 nm / absorption spectrum); format: physicochemical
Description: Raúl Enriquez (Instituto de Química, UNAM, México). Curcumin 5 mM was dissolved in DMSO and stored at room temperature. […] The protein concentration of the purified enzyme was determined spectrophotometrically by reading the absorbance at 460 nm (ɛ = 11.3 mM^-1cm^-1) due to its FAD content. The absorption spectrum of curcuminoids (curcumin, DMC and BDMC) and the different curcumin degradation products (CDP) FM, V, VA, F-Ad, 4VG, and FA were recorded in a UV/Vis Beckman DU 730 Spectrophotometer. […] The detection of the curcumin oxidation products (COP) was performed by following the changes in the absorption spectrum immediately after a 100-fold dilution of the curcumin stock solution in TE buffer.

Compound `COc1cc(/C=C/C=O)ccc1O` [ferulic aldehyde] has an IC50 [1] of 180 µM.

In the case of `COc1cc(/C=C/C(=O)O)ccc1O` [ferulic acid], the IC50 [1] is reported as 465 µM.

For `N[C@@H](CCC(=O)N[C@@H](CS)C(=O)NCC(=O)O)C(=O)O` [GSH, reduced glutathione, reference compound], the “Recovered activity (%)” value [1] was 14.7 ± 1.0%.

In the case of `O[C@@H](CS)[C@@H](O)CS` (racemic) [DTT, 1,4-Dithio-DL-threitol, reference compound], the “Recovered activity (%)” value [1] is reported as 20.3 ± 1.1%.

For `COc1cc(/C=C/C(O)=C/C(=O)/C=C/c2ccc(O)cc2)ccc1O` [DMC, demethoxycurcumin], the “time after dilution at which the final product of oxidative transformation was achieved” value [2] is given as 48 h, the “effect of NADPH on the stability” value ([3]; 50 μM in TE buffer, 100 μM NADPH, absorbance at 426 nm) is given as “no effect” and the inhibition at 200 µM [1] is given as 65%.

In the case of `COc1cc(/C=C/C(=O)CC(=O)/C=C/c2ccc(O)c(OC)c2)ccc1O` [curcumin, (1E, 6E)-1,7-bis (4-hydroxy-3-methoxyphenyl)-1,6-heptadiene-3,5-dione], the “drop in the absorbance at 426 nm” value ([3]; 50 μM in TE buffer pH 7.8, 30 min incubation, in the absence of NADPH) is reported as 82%, the “diminution in the absorbance at 426 nm” value ([3]; 50 μM in TE buffer pH 7.8, 30 min incubation, in the presence of 100 μM NADPH) is reported as 25% and the “dilution time at which the maximal inhibitory ability was reached” value ([1]; 50 μM diluted in TE buffer in the absence of NADPH (Fig 4a)) is reported as 15 min. For the same compound, the “inhibition of the enzyme activity” value ([1]; 50 μM diluted in TE buffer in the presence of 100 μM NADPH (Fig 4b)) was “no inhibition”, the remaining activity at 50 µM ([1]; 50 μM diluted in TE buffer without NADPH, after 4 h incubation (Fig 4a grey line), read-out: activity relative to control) was 80% and the GSSG reductase activity ([1]; 50 μM, diluted 30 min in TE buffer before enzyme, 1 min incubation with the enzyme (Fig 3a)) was “no GSSG reductase activity was detected”. It also gave an inhibition at 200 µM [1] of 10%.

For `O=C(/C=C/c1ccc(O)cc1)CC(=O)/C=C/c1ccc(O)cc1` [BDMC, bis-demethoxycurcumin], the “inhibition of the enzyme activity” value ([1]; 50 μM, diluted 30 min in TE buffer before enzyme, 30 min incubation with TGR (Fig 3)) was “no inhibition was observed” and the inhibition at 200 µM [1] was 100%.
